In PMC7156458, “Synthetic biology based construction of biological activity-related library of fungal decalin-containing diterpenoid pyrones” (Nature Communications, 2020):

Target: Aβ42 (Homo sapiens, UniProt P05067)
Test: Th-T (thioflavin-T) assay of Aβ42 aggregation
Type: biochemical

Chain of Aβ42 (P05067 672-713): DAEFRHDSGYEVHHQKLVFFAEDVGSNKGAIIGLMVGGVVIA

C=C1CCC2C(C)(CCC=C(C)C)C(O)CCC2(C)C1Cc1c(OC)oc(CO)c(C(=O)OC)c1=O (stereo not drawn) [Compound 13]
Fig. 7a Th-T reading, mean of three wells (column suffix _20, reading M101): 1.039 | Fig. 7a Th-T reading, mean of three wells (column suffix _20, reading M102): 1.036 | Fig. 7a Th-T reading, mean of three wells (column suffix _20, reading M103): 1.04 | Fig. 7a Th-T reading, mean of three wells (column suffix _20, reading M104): 1.043 | Fig. 7a Th-T reading, mean of three wells (column suffix _20, reading M105): 1.05 | Fig. 7a Th-T reading, mean of three wells (column suffix _20, reading M106): 1.043 | Th-T fluorescence, mean of three wells (Fig. 7a) (column suffix _50, measurement M19): 0.2105 | Th-T fluorescence, mean of three wells (Fig. 7a) (column suffix _50, measurement M20): 0.229 | Th-T fluorescence, mean of three wells (Fig. 7a) (column suffix _50, measurement M21): 0.2537 | Th-T fluorescence, mean of three wells (Fig. 7a) (column suffix _50, measurement M22): 0.2749 | Th-T fluorescence, mean of three wells (Fig. 7a) (column suffix _50, measurement M23): 0.2968 | Th-T fluorescence, mean of three wells (Fig. 7a) (column suffix _50, measurement M24): 0.3154 | Th-T fluorescence, mean of three wells (Fig. 7a) (column suffix _50, measurement M25): 0.3353 | Th-T fluorescence, mean of three wells (Fig. 7a) (column suffix _50, measurement M26): 0.3518 | Th-T fluorescence, mean of three wells (Fig. 7a) (column suffix _50, measurement M27): 0.3638 | Th-T fluorescence, mean of three wells (Fig. 7a) (column suffix _50, measurement M28): 0.3753 | Th-T fluorescence, mean of three wells (Fig. 7a) (column suffix _50, measurement M29): 0.3846 | Th-T assay signal, mean of three wells (Fig. 7a) (column suffix _50, reading M1): 0.5109 | Th-T assay signal, mean of three wells (Fig. 7a) (column suffix _50, reading M2): 0.3694 | Th-T assay signal, mean of three wells (Fig. 7a) (column suffix _50, reading M3): 0.2987 | Th-T assay signal, mean of three wells (Fig. 7a) (column suffix _50, reading M4): 0.2463 | Th-T assay signal, mean of three wells (Fig. 7a) (column suffix _50, reading M5): 0.2182 | Th-T assay signal, mean of three wells (Fig. 7a) (column suffix _50, reading M6): 0.2003 | Th-T assay signal, mean of three wells (Fig. 7a) (column suffix _50, reading M7): 0.1883 | Th-T assay signal, mean of three wells (Fig. 7a) (column suffix _50, reading M8): 0.1784 | Th-T assay signal, mean of three wells (Fig. 7a) (column suffix _50, reading M9): 0.17 | Th-T assay signal, mean of three wells (Fig. 7a) (column suffix _50, reading M10): 0.1689 | Th-T assay signal, mean of three wells (Fig. 7a) (column suffix _50, reading M11): 0.1659 | Th-T assay signal, mean of three wells (Fig. 7a) (column suffix _50, reading M12): 0.1664 | Th-T assay signal, mean of three wells (Fig. 7a) (column suffix _50, reading M13): 0.1648 | Th-T assay signal, mean of three wells (Fig. 7a) (column suffix _50, reading M14): 0.1691 | Th-T assay signal, mean of three wells (Fig. 7a) (column suffix _50, reading M15): 0.173 | Th-T assay signal, mean of three wells (Fig. 7a) (column suffix _50, reading M16): 0.1783 | Th-T assay signal, mean of three wells (Fig. 7a) (column suffix _50, reading M17): 0.1848 | Th-T assay signal, mean of three wells (Fig. 7a) (column suffix _50, reading M18): 0.1952 | Fig. 7a Th-T reading, mean of three wells (column suffix _50, reading M85): 0.4685 | Fig. 7a Th-T reading, mean of three wells (column suffix _50, reading M86): 0.4692 | Fig. 7a Th-T reading, mean of three wells (column suffix _50, reading M87): 0.4718 | Fig. 7a Th-T reading, mean of three wells (column suffix _50, reading M88): 0.4737 | Fig. 7a Th-T reading, mean of three wells (column suffix _50, reading M89): 0.4759 | Fig. 7a Th-T reading, mean of three wells (column suffix _50, reading M90): 0.4735 | Fig. 7a Th-T reading, mean of three wells (column suffix _50, reading M91): 0.4713 | Fig. 7a Th-T reading, mean of three wells (column suffix _50, reading M92): 0.4706 | Fig. 7a Th-T reading, mean of three wells (column suffix _50, reading M93): 0.4737 | Fig. 7a Th-T reading, mean of three wells (column suffix _50, reading M94): 0.4775 | Fig. 7a Th-T reading, mean of three wells (column suffix _50, reading M95): 0.4772 | Fig. 7a Th-T reading, mean of three wells (column suffix _50, reading M96): 0.4744 | Fig. 7a Th-T reading, mean of three wells (column suffix _50, reading M97): 0.4689 | Fig. 7a Th-T reading, mean of three wells (column suffix _50, reading M98): 0.4718 | Fig. 7a Th-T reading, mean of three wells (column suffix _50, reading M99): 0.4742 | Fig. 7a Th-T reading, mean of three wells (column suffix _50, reading M100): 0.4783 | Fig. 7a Th-T reading, mean of three wells (column suffix _50, reading M101): 0.4707 | Fig. 7a Th-T reading, mean of three wells (column suffix _50, reading M102): 0.471 | Fig. 7a Th-T reading, mean of three wells (column suffix _50, reading M103): 0.4747 | Fig. 7a Th-T reading, mean of three wells (column suffix _50, reading M104): 0.4762 | Fig. 7a Th-T reading, mean of three wells (column suffix _50, reading M105): 0.477 | Fig. 7a Th-T reading, mean of three wells (column suffix _50, reading M106): 0.4781 | Th-T fluorescence, mean of three wells (compound at 10, reading M41 of time course): 1.211 | Th-T fluorescence, mean of three wells (compound at 10, reading M42 of time course): 1.2969 | Th-T fluorescence, mean of three wells (compound at 10, reading M43 of time course): 1.3329 | Th-T fluorescence, mean of three wells (compound at 10, reading M44 of time course): 1.377 | Th-T fluorescence, mean of three wells (compound at 10, reading M45 of time course): 1.405 | Th-T fluorescence, mean of three wells (compound at 10, reading M46 of time course): 1.436 | Th-T fluorescence, mean of three wells (compound at 10, reading M47 of time course): 1.47 | Th-T fluorescence, mean of three wells (compound at 10, reading M48 of time course): 1.487 | Th-T fluorescence, mean of three wells (compound at 10, reading M49 of time course): 1.496 | Th-T fluorescence, mean of three wells (compound at 10, reading M50 of time course): 1.5062 | Th-T fluorescence, mean of three wells (compound at 10, reading M51 of time course): 1.523 | Th-T fluorescence, mean of three wells (compound at 10, reading M52 of time course): 1.537 | Th-T fluorescence, mean of three wells (compound at 10, reading M53 of time course): 1.531 | Th-T fluorescence, mean of three wells (compound at 10, reading M54 of time course): 1.542 | Th-T fluorescence, mean of three wells (compound at 10, reading M55 of time course): 1.541 | Th-T fluorescence, mean of three wells (compound at 10, reading M56 of time course): 1.545 | Th-T fluorescence, mean of three wells (compound at 10, reading M57 of time course): 1.551 | Th-T fluorescence, mean of three wells (compound at 10, reading M58 of time course): 1.551 | Th-T fluorescence, mean of three wells (compound at 10, reading M59 of time course): 1.549 | Th-T fluorescence, mean of three wells (compound at 10, reading M60 of time course): 1.541 | Th-T fluorescence, mean of three wells (compound at 10, reading M61 of time course): 1.554 | Th-T fluorescence, mean of three wells (compound at 10, reading M62 of time course): 1.56 | Th-T fluorescence, mean of three wells (compound at 20, reading M41 of time course): 0.3859 | Th-T fluorescence, mean of three wells (compound at 20, reading M42 of time course): 0.4228 | Th-T fluorescence, mean of three wells (compound at 20, reading M43 of time course): 0.4511 | Th-T fluorescence, mean of three wells (compound at 20, reading M44 of time course): 0.4829 | Th-T fluorescence, mean of three wells (compound at 20, reading M45 of time course): 0.5147 | Th-T fluorescence, mean of three wells (compound at 20, reading M46 of time course): 0.5564 | Th-T fluorescence, mean of three wells (compound at 20, reading M47 of time course): 0.5957 | Th-T fluorescence, mean of three wells (compound at 20, reading M48 of time course): 0.6248 | Th-T fluorescence, mean of three wells (compound at 20, reading M49 of time course): 0.6553 | Th-T fluorescence, mean of three wells (compound at 20, reading M50 of time course): 0.6948 | Th-T fluorescence, mean of three wells (compound at 20, reading M51 of time course): 0.7326 | Th-T fluorescence, mean of three wells (compound at 20, reading M52 of time course): 0.7726 | Th-T fluorescence, mean of three wells (compound at 20, reading M53 of time course): 0.8004 | Th-T fluorescence, mean of three wells (compound at 20, reading M54 of time course): 0.8343 | Th-T fluorescence, mean of three wells (compound at 20, reading M55 of time course): 0.8641 | Th-T fluorescence, mean of three wells (compound at 20, reading M56 of time course): 0.9063 | Th-T fluorescence, mean of three wells (compound at 20, reading M57 of time course): 0.941 | Th-T fluorescence, mean of three wells (compound at 20, reading M58 of time course): 0.9604 | Th-T fluorescence, mean of three wells (compound at 20, reading M59 of time course): 0.9808 | Th-T fluorescence, mean of three wells (compound at 20, reading M60 of time course): 0.9918 | Th-T fluorescence, mean of three wells (compound at 20, reading M61 of time course): 1.018 | Th-T fluorescence, mean of three wells (compound at 20, reading M62 of time course): 1.031 | Th-T fluorescence, mean of three wells (compound at 50, reading M41 of time course): 0.4483 | Th-T fluorescence, mean of three wells (compound at 50, reading M42 of time course): 0.4529 | Th-T fluorescence, mean of three wells (compound at 50, reading M43 of time course): 0.452 | Th-T fluorescence, mean of three wells (compound at 50, reading M44 of time course): 0.4555 | Th-T fluorescence, mean of three wells (compound at 50, reading M45 of time course): 0.4534 | Th-T fluorescence, mean of three wells (compound at 50, reading M46 of time course): 0.4569 | Th-T fluorescence, mean of three wells (compound at 50, reading M47 of time course): 0.4654 | Th-T fluorescence, mean of three wells (compound at 50, reading M48 of time course): 0.4625 | Th-T fluorescence, mean of three wells (compound at 50, reading M49 of time course): 0.4637 | Th-T fluorescence, mean of three wells (compound at 50, reading M50 of time course): 0.4613 | Th-T fluorescence, mean of three wells (compound at 50, reading M51 of time course): 0.4698 | Th-T fluorescence, mean of three wells (compound at 50, reading M52 of time course): 0.4696 | Th-T fluorescence, mean of three wells (compound at 50, reading M53 of time course): 0.4691
